Common to all, as to type: in vivo
In assay [1] the test system is Sinapsis alba. In words: Herbicidal activity, postemergence test (Example 66). The settings on record: post; 1000 g/ha; assessed visually twenty days after spraying. On the set-up: key: A rating of 0 indicates growth as untreated control; a rating of 9 indicates death. As for the experimental part:
(§1) To evaluate their herbicidal activity, compounds according to the invention are tested using a representative range of plants: ZEAMX Zea mays ORYSA Oryza sativa GLXMA Glycine max BEAVA Beta vulgaris LIUUT Linum usitatissimum AVEFA Avena fatua ECHCG Echinochloa crus-galli SINAL Sinapsis alba
(§2) The tests fall into two categories, preemergence and postemergence. The preemergence tests involve spraying a liquid formulation of the compound onto the soil in which the seeds of the plant species mentioned above have recently been sown. The postemergence tests involve spraying a liquid formulation of the compound onto seedling plants of the above species.
(§3) The soil used in the tests is a prepared horticultural loam.
(§4) The formulations used in the tests are prepared from solutions of the test compounds in acetone containing 0.4% by weight of an alkylphenol/ethylene oxide condensate available under the trademark TRITON X-155. These acetone solutions are diluted with water and the resulting formulations applied at dosage levels corresponding to 1000 g of active material per hectare in a volume equivalent to 900 litres per hectare.
(§5) In the preemergence tests, untreated sown soil, and in the postemergence tests, untreated soil bearing seedling plants, are used as controls.
(§6) The herbicidal effects of the test compounds are assessed visually twenty days after spraying the foliage and the soil and are recorded on a 0-9 scale. A rating of 0 indicates growth as untreated control, a rating of 9 indicates death. An increase of 1 unit on the linear scale approximates to an 11% increase in the level of effect.

In assay [2] the test system is Echinochloa crus-galli. The description is as above. On the set-up: key: A rating of 0 indicates growth as untreated control; a rating of 9 indicates death. The note with it: post; 1000 g/ha; assessed visually twenty days after spraying. The procedure:
as §1, §2, §3, §4, §5, §6

Assay [3] concerns Linum usitatissimum. Described as above. Also noted: key: A rating of 0 indicates growth as untreated control; a rating of 9 indicates death. The note with it: post; 1000 g/ha; assessed visually twenty days after spraying. As for the experimental part: as §1, §2, §3, §4, §5, §6
Assay [4] concerns Oryza sativa. The assay is described as above. The settings on record: post; 1000 g/ha; assessed visually twenty days after spraying. On the set-up: key: A rating of 0 indicates growth as untreated control; a rating of 9 indicates death. As for the experimental part: as §1, §2, §3, §4, §5, §6
For assay [5], the system named is Zea mays. The assay is described as above. On the set-up: key: A rating of 0 indicates growth as untreated control; a rating of 9 indicates death. The note with it: post; 1000 g/ha; assessed visually twenty days after spraying. As for the experimental part:
as §1, §2, §3, §4, §5, §6

The test system of assay [6] is Beta vulgaris. Described as above. Also noted: key: A rating of 0 indicates growth as untreated control; a rating of 9 indicates death. The settings on record: post; 1000 g/ha; assessed visually twenty days after spraying. The procedure: as §1, §2, §3, §4, §5, §6
The subject of assay [7] is Avena fatua. The assay is described as above. Also noted: key: A rating of 0 indicates growth as untreated control; a rating of 9 indicates death. The note with it: post; 1000 g/ha; assessed visually twenty days after spraying. The procedure:
as §1, §2, §3, §4, §5, §6

The test system of assay [8] is Sinapsis alba. In words: Herbicidal activity, preemergence test (Example 66). The settings on record: pre; 1000 g/ha; assessed visually twenty days after spraying. On the set-up: key: A rating of 0 indicates growth as untreated control; a rating of 9 indicates death. As for the experimental part:
as §1, §2, §3, §4, §5, §6

Assay [9] has as its system Echinochloa crus-galli. Described as above. The note with it: pre; 1000 g/ha; assessed visually twenty days after spraying. Also noted: key: A rating of 0 indicates growth as untreated control; a rating of 9 indicates death. The procedure: as §1, §2, §3, §4, §5, §6
Assay [10] relates to Linum usitatissimum. The assay is described as above. The note with it: pre; 1000 g/ha; assessed visually twenty days after spraying. Also noted: key: A rating of 0 indicates growth as untreated control; a rating of 9 indicates death. The procedure: as §1, §2, §3, §4, §5, §6
Assay [11] relates to Oryza sativa. The description is as above. On the set-up: key: A rating of 0 indicates growth as untreated control; a rating of 9 indicates death. The settings on record: pre; 1000 g/ha; assessed visually twenty days after spraying. The procedure: as §1, §2, §3, §4, §5, §6
Assay [12] concerns Zea mays. The description is as above. Also noted: key: A rating of 0 indicates growth as untreated control; a rating of 9 indicates death. The note with it: pre; 1000 g/ha; assessed visually twenty days after spraying. The procedure:
as §1, §2, §3, §4, §5, §6

Assay [13] relates to Beta vulgaris. Described as above. The note with it: pre; 1000 g/ha; assessed visually twenty days after spraying. On the set-up: key: A rating of 0 indicates growth as untreated control; a rating of 9 indicates death. As for the experimental part: as §1, §2, §3, §4, §5, §6
Assay [14] has as its system Avena fatua. Described as above. Also noted: key: A rating of 0 indicates growth as untreated control; a rating of 9 indicates death. The settings on record: pre; 1000 g/ha; assessed visually twenty days after spraying. The procedure: as §1, §2, §3, §4, §5, §6
Assay [15] has as its system Glycine max. The assay is described as above. Also noted: key: A rating of 0 indicates growth as untreated control; a rating of 9 indicates death. The note with it: pre; 1000 g/ha; assessed visually twenty days after spraying. The procedure:
as §1, §2, §3, §4, §5, §6

Assay [16] relates to Glycine max. In words: Herbicidal activity, postemergence test (Example 66). The settings on record: post; 1000 g/ha; assessed visually twenty days after spraying. As for the experimental part:
as §1, §2, §3, §4, §5, §6

Each structure is given as a SMILES string.

These results are taken from patent publication EP0726261A1, “Herbidical 1,2,4 thiadiazoles” (American Cyanamid Company, priority 1995, dated 1996).

For the compound `CC(NC(=O)c1nc(-c2ccc(F)cc2)ns1)c1cccs1` (racemic) [Example 15, (R/S)-3-(4-Fluorophenyl)-[1,2,4]thiadiazole-5-carboxylic acid, [1-(2-thienyl)ethyl]amide], the “herbicidal effects on a 0-9 scale, SINAL” value in the assay on Sinapsis alba [1] is recorded as 9; in the assay on Sinapsis alba [8], 0. The “herbicidal effects on a 0-9 scale, ECHCG” value is given as 7 with Echinochloa crus-galli [2] and 0 with Echinochloa crus-galli [9]. The “herbicidal effects on a 0-9 scale, LIUUT” value in the assay with Linum usitatissimum [3] came out at 7; in the assay with Linum usitatissimum [10] it was 0. For the same compound, the “herbicidal effects on a 0-9 scale, ORYSA” value with Oryza sativa [4] and in the assay with Oryza sativa [11] was 0 in each case. Also, the “herbicidal effects on a 0-9 scale, ZEAMX” value with Zea mays [5] is 3; in the assay with Zea mays [12], 0. The “herbicidal effects on a 0-9 scale, BEAVA” value with Beta vulgaris [6] was found to be 9; in the assay with Beta vulgaris [13], 0. Moreover, the “herbicidal effects on a 0-9 scale, AVEFA” value in the assay on Avena fatua [7] amounted to 4; in the assay on Avena fatua [14], 0. Besides, the “herbicidal effects on a 0-9 scale, GLXMA” value was 0 in the assay on Glycine max [15] and 7 in the assay with Glycine max [16].
With `CC(C)Cc1nsc(C(=O)NCc2cccs2)n1` [Example 11], the “herbicidal effects on a 0-9 scale, SINAL” value in the assay on Sinapsis alba [1] was 7; with Sinapsis alba [8], 0. In addition, the “herbicidal effects on a 0-9 scale, ECHCG” value with Echinochloa crus-galli [2] was 2; with Echinochloa crus-galli [9], 0. Moreover, the entries for the “herbicidal effects on a 0-9 scale, LIUUT” value with Linum usitatissimum [3] and in the assay on Linum usitatissimum [10] were 2 and 0, respectively. Further, the “herbicidal effects on a 0-9 scale, ORYSA” value with Oryza sativa [4] and in the assay on Oryza sativa [11] was 0 throughout. In addition, the “herbicidal effects on a 0-9 scale, ZEAMX” value in the assay with Zea mays [5] and in the assay with Zea mays [12] was 0 throughout. The “herbicidal effects on a 0-9 scale, BEAVA” value with Beta vulgaris [6] is listed as 4; in the assay with Beta vulgaris [13] it was 0. Further, the “herbicidal effects on a 0-9 scale, AVEFA” value in the assay with Avena fatua [7] and in the assay with Avena fatua [14] was 0 in each case. Further, the figures for the “herbicidal effects on a 0-9 scale, GLXMA” value in the assay on Glycine max [15] and with Glycine max [16] were 0 and 2, respectively.
As for `CC(NC(=O)c1nc(-c2cccc(C(F)(F)F)c2)ns1)c1cccs1` (racemic) [Example 21, (R/S)-3-(3-Trifluoromethylphenyl)-[1,2,4]thiadiazole-5-carboxylic acid, [1-(2-thienyl)ethyl]amide], the “herbicidal effects on a 0-9 scale, SINAL” value with Sinapsis alba [1] is 9; with Sinapsis alba [8] it was 0. Moreover, the entries for the “herbicidal effects on a 0-9 scale, ECHCG” value with Echinochloa crus-galli [2] and with Echinochloa crus-galli [9] were 8 and 0, respectively. The results for the “herbicidal effects on a 0-9 scale, LIUUT” value in the assay on Linum usitatissimum [3] and in the assay on Linum usitatissimum [10] were 7 and 0, respectively. In addition, the “herbicidal effects on a 0-9 scale, ORYSA” value in the assay with Oryza sativa [4] and in the assay on Oryza sativa [11] was 0 throughout. For the same compound, the “herbicidal effects on a 0-9 scale, ZEAMX” value in the assay with Zea mays [5] and with Zea mays [12] was 0 throughout. For the same compound, the results for the “herbicidal effects on a 0-9 scale, BEAVA” value in the assay on Beta vulgaris [6] and in the assay on Beta vulgaris [13] were 8 and 0, respectively. Besides, the entries for the “herbicidal effects on a 0-9 scale, AVEFA” value with Avena fatua [7] and in the assay with Avena fatua [14] were 7 and 0, respectively. In addition, the “herbicidal effects on a 0-9 scale, GLXMA” value in the assay with Glycine max [15] is 0; in the assay on Glycine max [16], 7.
On to `CC(NC(=O)c1nc(C(C)(C)C)ns1)c1cccs1` (racemic) [Example 6, (R/S)-3-tert-Butyl-[1,2,4]thiadiazole-5-carboxylic acid, [1-(2-thienyl)ethyl]amide], for which the “herbicidal effects on a 0-9 scale, SINAL” value is listed as 9 in the assay with Sinapsis alba [1] and 7 in the assay with Sinapsis alba [8]. Further, the “herbicidal effects on a 0-9 scale, ECHCG” value in the assay with Echinochloa crus-galli [2] is 9; in the assay with Echinochloa crus-galli [9], 0. In addition, the “herbicidal effects on a 0-9 scale, LIUUT” value worked out at 9 in the assay with Linum usitatissimum [3] and 3 in the assay on Linum usitatissimum [10]. Besides, the “herbicidal effects on a 0-9 scale, ORYSA” value with Oryza sativa [4] is recorded as 2; in the assay on Oryza sativa [11], 0. Further, the “herbicidal effects on a 0-9 scale, ZEAMX” value in the assay on Zea mays [5] and with Zea mays [12] was 0 throughout. For the same compound, the “herbicidal effects on a 0-9 scale, BEAVA” value with Beta vulgaris [6] and with Beta vulgaris [13] was 9 each time. The “herbicidal effects on a 0-9 scale, AVEFA” value with Avena fatua [7] turned out to be 7; in the assay with Avena fatua [14] it was 0. In addition, the “herbicidal effects on a 0-9 scale, GLXMA” value in the assay on Glycine max [15] was 0; with Glycine max [16], 7.
